Experimental data taken from patent US20090099029A1, “Methods and substrates for conducting assays” (Invitrogen Corporation, priority 2005, published 2009).
Read-outs that look alike come from different tables or passages of the source.

Experiments:
Test in all cases: Further analysis of a plurality of inhibitors and a plurality of kinases (Table 5 inhibition results)
Type in all cases: biochemical
Set-up in all cases: scale not given here
[1] = biological target: T1, kinases of Table 5 (Homo sapiens, UniProt P54762); details: for Inhibition Results (Level): kinase EPHB1 (Part II, plate B8, Domain 1)
T1 sequence (P54762 18-984): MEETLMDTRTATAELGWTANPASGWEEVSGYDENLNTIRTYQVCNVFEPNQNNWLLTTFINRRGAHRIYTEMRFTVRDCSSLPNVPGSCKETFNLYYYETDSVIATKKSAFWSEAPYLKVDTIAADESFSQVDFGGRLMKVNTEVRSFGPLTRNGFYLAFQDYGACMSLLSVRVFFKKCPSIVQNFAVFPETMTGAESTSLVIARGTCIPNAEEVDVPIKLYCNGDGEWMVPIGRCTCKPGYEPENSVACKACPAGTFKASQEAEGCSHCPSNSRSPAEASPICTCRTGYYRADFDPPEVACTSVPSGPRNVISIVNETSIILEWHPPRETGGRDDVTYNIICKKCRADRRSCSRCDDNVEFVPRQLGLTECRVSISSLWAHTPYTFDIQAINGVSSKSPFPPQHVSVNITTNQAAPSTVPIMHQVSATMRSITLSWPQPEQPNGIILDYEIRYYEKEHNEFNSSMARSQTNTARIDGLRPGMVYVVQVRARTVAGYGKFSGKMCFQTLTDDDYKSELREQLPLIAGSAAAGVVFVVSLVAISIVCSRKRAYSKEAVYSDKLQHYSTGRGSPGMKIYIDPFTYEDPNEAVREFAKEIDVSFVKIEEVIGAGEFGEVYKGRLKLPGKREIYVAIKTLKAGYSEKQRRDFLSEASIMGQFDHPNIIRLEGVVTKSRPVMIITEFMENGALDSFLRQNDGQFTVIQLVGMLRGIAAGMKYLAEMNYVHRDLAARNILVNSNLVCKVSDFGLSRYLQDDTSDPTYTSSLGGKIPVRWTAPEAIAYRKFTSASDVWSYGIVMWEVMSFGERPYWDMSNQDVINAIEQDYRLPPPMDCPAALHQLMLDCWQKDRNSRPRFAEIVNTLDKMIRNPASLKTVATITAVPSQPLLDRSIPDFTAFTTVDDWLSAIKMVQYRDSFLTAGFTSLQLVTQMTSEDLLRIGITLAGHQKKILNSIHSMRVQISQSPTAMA
Excerpt: (§1) The wash solution is then discarded.

[2] = biological target: T2, kinases of Table 5 (Homo sapiens, UniProt P29323); details: kinase EPHB2 (Part I, plate E5, Domain 1)
T2 sequence (P29323 19-1055): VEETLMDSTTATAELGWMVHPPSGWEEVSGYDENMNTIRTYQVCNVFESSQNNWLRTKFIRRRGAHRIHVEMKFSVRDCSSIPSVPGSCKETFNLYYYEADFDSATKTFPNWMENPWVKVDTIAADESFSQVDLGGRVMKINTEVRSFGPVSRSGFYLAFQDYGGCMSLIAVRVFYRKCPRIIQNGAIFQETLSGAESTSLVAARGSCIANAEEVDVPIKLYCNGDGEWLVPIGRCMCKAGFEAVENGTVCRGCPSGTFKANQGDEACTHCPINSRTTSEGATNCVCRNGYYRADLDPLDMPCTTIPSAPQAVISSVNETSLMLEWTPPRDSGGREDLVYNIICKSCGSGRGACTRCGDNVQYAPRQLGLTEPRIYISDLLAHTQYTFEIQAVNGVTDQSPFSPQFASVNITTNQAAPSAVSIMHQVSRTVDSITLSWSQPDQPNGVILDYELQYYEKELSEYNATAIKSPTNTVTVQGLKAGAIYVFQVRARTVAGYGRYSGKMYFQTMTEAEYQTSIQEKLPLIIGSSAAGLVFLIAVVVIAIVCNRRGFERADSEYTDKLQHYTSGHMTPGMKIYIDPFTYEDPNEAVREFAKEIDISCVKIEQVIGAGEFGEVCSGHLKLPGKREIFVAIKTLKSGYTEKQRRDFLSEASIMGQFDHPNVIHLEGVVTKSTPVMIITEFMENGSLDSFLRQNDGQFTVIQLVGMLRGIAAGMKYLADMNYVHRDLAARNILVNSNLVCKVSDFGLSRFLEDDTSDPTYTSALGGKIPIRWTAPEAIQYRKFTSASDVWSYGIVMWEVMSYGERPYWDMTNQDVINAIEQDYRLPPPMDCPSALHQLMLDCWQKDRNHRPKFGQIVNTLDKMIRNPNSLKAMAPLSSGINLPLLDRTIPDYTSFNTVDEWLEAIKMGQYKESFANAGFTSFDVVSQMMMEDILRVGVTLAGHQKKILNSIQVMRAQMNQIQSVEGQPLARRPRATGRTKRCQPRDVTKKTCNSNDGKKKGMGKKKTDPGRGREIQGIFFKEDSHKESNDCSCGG
Excerpt: as §1

[3] = biological target: kinases of Table 5 (Homo sapiens, UniProt Q8IU85); details: inhibitor 100 uM; for Inhibition level: kinase LOC57118; for Inhibition Results (Level): kinase LOC57118 (Part II, plate D2, Domain 1)
kinases of Table 5 (Homo sapiens, UniProt Q8IU85), sequence (Q8IU85 whole entry): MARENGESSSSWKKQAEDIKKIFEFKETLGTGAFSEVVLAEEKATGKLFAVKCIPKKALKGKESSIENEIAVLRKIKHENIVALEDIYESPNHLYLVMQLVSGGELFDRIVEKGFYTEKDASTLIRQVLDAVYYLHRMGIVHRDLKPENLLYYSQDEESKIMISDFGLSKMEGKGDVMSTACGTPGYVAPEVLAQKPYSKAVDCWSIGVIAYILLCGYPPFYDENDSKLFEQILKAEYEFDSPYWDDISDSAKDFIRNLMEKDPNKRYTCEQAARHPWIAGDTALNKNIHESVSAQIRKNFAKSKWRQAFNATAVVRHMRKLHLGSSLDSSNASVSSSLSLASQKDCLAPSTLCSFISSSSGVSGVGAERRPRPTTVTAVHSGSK
Excerpt: as §1

[4] = biological target: kinases of Table 5 (Homo sapiens, UniProt P00519); details: for Inhibition level: kinase ABL1; for Inhibition Results (Level): kinase ABL1 (Part II, plate B6, Domain 1)
kinases of Table 5 (Homo sapiens, UniProt P00519), sequence (P00519 whole entry): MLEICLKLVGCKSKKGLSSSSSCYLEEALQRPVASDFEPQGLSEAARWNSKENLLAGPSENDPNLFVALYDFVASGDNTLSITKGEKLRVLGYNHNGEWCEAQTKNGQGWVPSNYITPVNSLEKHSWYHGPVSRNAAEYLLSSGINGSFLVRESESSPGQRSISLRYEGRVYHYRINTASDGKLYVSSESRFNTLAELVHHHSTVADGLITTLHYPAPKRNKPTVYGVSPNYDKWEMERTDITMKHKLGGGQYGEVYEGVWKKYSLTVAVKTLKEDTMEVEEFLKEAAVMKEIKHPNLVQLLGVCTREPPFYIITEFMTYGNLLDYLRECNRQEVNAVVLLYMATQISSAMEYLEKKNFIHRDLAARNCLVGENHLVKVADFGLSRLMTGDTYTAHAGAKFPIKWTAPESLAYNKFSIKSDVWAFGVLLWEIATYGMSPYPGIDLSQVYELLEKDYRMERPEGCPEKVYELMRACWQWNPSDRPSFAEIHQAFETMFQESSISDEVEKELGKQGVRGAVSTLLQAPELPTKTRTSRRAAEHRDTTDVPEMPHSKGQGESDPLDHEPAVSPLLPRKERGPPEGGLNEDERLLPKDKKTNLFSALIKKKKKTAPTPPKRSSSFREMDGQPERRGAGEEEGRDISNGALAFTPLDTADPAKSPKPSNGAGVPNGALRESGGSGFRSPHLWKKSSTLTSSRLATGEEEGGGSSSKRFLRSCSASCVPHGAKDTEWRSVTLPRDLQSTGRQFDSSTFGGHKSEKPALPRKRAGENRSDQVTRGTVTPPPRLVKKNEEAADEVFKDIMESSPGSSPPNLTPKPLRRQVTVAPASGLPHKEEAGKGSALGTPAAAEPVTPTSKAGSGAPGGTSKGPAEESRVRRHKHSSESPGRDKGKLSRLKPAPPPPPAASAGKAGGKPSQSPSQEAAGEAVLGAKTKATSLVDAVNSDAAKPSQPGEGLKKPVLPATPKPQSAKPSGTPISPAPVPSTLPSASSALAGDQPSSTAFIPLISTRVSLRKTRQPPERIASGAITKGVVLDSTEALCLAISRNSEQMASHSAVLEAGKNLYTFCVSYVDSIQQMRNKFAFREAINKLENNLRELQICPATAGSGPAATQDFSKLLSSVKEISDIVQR
Excerpt: as §1

[5] = biological target: T3, kinases of Table 5 (Homo sapiens, UniProt Q96KB5); details: kinase TOPK (Part I, plate G7, Domain 1)
T3 sequence (Q96KB5 1-322): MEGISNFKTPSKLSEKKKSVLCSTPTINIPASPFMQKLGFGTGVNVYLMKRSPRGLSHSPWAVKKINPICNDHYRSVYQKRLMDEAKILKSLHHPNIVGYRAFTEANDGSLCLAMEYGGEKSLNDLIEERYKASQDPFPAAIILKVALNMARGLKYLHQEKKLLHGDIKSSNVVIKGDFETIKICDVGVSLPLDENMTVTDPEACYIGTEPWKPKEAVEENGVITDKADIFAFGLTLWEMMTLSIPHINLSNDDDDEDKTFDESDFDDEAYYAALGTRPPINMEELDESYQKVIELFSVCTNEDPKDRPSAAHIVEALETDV
Excerpt: as §1

[6] = biological target: kinases of Table 5 (Homo sapiens, UniProt Q86UE8); details: kinase TLK2 (Part I, plate C8, Domain 1)
kinases of Table 5 (Homo sapiens, UniProt Q86UE8), sequence (Q86UE8 whole entry): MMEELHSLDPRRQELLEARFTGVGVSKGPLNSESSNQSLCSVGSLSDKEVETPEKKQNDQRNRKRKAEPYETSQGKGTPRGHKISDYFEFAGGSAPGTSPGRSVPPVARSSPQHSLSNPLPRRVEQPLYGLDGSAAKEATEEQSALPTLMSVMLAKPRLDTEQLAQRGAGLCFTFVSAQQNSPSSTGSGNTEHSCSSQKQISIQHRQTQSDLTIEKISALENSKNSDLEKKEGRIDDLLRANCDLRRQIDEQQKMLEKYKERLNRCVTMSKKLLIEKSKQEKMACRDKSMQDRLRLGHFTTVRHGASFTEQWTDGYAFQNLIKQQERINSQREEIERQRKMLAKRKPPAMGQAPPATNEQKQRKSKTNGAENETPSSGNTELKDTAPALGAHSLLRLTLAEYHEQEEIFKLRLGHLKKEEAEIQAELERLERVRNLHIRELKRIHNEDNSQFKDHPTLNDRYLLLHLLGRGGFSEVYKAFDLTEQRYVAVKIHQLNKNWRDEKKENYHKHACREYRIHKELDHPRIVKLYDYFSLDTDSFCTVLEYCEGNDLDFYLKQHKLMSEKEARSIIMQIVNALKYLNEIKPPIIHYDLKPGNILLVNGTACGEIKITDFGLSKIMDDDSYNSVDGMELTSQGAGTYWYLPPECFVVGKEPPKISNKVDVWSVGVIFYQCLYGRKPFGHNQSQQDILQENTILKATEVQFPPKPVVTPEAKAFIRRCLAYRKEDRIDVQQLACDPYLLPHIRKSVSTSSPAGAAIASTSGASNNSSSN
Excerpt: as §1

[7] = biological target: kinases of Table 5 (Homo sapiens, UniProt P16591); details: inhibitor 100 uM; for Inhibition level: kinase FER; for Inhibition Results (Level): kinase FER (Part II, plate H5, Domain 1)
kinases of Table 5 (Homo sapiens, UniProt P16591), sequence (P16591 whole entry): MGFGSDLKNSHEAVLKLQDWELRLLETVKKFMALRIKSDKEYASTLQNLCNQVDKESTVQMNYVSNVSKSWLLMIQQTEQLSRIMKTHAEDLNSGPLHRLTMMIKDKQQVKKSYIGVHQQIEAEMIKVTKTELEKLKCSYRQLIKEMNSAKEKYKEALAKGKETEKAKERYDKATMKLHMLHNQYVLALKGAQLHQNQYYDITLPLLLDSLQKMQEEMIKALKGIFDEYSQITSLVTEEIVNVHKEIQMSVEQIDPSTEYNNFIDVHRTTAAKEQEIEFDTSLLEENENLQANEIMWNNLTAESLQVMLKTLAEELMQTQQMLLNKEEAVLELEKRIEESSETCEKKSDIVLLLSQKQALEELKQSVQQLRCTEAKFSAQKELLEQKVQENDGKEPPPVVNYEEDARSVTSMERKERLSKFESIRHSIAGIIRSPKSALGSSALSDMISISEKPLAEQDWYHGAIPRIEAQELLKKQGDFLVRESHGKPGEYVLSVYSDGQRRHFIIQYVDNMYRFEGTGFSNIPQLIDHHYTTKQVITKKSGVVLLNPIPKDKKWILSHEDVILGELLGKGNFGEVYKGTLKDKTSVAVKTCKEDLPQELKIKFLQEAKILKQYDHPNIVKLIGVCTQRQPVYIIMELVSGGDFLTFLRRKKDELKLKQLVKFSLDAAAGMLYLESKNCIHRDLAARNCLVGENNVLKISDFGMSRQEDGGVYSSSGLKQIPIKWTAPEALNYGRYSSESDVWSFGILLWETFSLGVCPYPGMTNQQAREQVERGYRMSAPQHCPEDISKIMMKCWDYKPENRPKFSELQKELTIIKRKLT
Excerpt: as §1

[8] = kinase EPHB1, concentration not given

Inhibition level ([1]; kinase EPHB1, inhibitor 100 uM)	Inhibition Results (Level) ([2]; inhibitor 100 uM)	Inhibition level [3]	Inhibition level ([4]; inhibitor 100 uM)	Inhibition Results (Level) ([5]; inhibitor 100 uM)	Inhibition Results (Level) ([6]; inhibitor 100 uM)	Inhibition level [7]	SMILES	Inhibition Results (Level) ([1]; inhibitor 100 uM)	Inhibition Results (Level) [3]	Inhibition Results (Level) [7]	also measured
2	2	0	1	1	2	1	COc1cc2ncnc(Nc3cccc(Cl)c3)c2cc1OC [AG 1478]				
1	2	0	0	2	2	2	O=c1c(-c2ccc(O)cc2)coc2cc(O)cc(O)c12 [Genistein]				Inhibition level [1, 8]: 0; Inhibition Results (Level) ([2]; inhibitor <3.7 mM): 0; Inhibition level ([4]; concentration not given): 0; Inhibition Results (Level) ([5]; inhibitor <3.7 mM): 0; Inhibition Results (Level) ([6]; inhibitor <3.7 mM): 0
	2			2	2		O=S(=O)(NCCNC/C=C/c1ccc(Br)cc1)c1cccc2cnccc12 [H-89]	1	1	2	Inhibition Results (Level) ([4]; inhibitor 100 uM): 0
2	2	0		2	2	2	CC(C)(C)n1nc(-c2ccc(Cl)cc2)c2c(N)ncnc21 [PP2]				
0	2	0	2	0	1	2	Cn1cc(C2=C(c3cn(CCCSC(=N)N)c4ccccc34)C(=O)NC2=O)c2ccccc21 [Ro-31-8220]				Inhibition level [1, 8]: 2; Inhibition Results (Level) ([2]; inhibitor 90 uM): 0; Inhibition level ([4]; concentration not given): 0; Inhibition Results (Level) ([5]; inhibitor 90 uM): 2; Inhibition Results (Level) ([6]; inhibitor 90 uM): 2
							CN[C@@H]1C[C@H]2O[C@@](C)([C@@H]1OC)n1c3ccccc3c3c4c(c5c6ccccc6n2c5c31)C(=O)NC4 [Staurosporine]				Inhibition level [1]: 2; Inhibition Results (Level) ([5]; inhibitor 21.5 uM): 2; Inhibition Results (Level) ([6]; inhibitor 21.5 uM): 2

SMILES	Inhibition level ([1]; kinase EPHB1, inhibitor 100 uM)	Inhibition Results (Level) ([2]; inhibitor 100 uM)	Inhibition level [3]	Inhibition level ([4]; inhibitor 100 uM)	Inhibition Results (Level) ([5]; inhibitor 100 uM)	Inhibition Results (Level) ([6]; inhibitor 100 uM)	Inhibition level [7]	Inhibition Results (Level) ([1]; inhibitor 100 uM)	Inhibition Results (Level) [3]	Inhibition Results (Level) [7]	also measured
N#C/C(=C/c1ccc(O)c(O)c1)C(=O)NCc1ccccc1 [AG 490]	0	2	1	0	2	2	2				
O=c1c(O)c(-c2ccc(O)c(O)c2)oc2cc(O)cc(O)c12 [Quercetin]		2			0	0		0	0	1	
CC(=O)c1c(O)c(C)c(O)c(Cc2c(O)c3c(c(C(=O)/C=C/c4ccccc4)c2O)OC(C)(C)C=C3)c1O [Rottlerin (Mallotoxin)]		2			2	2		1	0	2	Inhibition Results (Level) ([4]; inhibitor 100 uM): 0
